The values that follow are results of earlier work, collected in paper PMC8113538, “Acute toxicity analysis of an inhibitor of BCL2, Disarib, in rats” (Scientific Reports, 2021).

For series [1] the following is noted: cited from earlier work; for solubility in organic solvents: DMSO and Dimethylformamide.
On the set-up of series [2]: method as in EMA Venclyxto public assessment report, 16. Conditions: dogs; ref EMA Venclyxto public assessment report, 16; cited from earlier work.
Details of series [3]: method as in EMA Venclyxto public assessment report, 16. Conditions: monkey; ref EMA Venclyxto public assessment report, 16; cited from earlier work.
The conditions of series [4]: cited from earlier work.
Series [5] relates to platelets. Set-up: method as in PMID 26589495. Conditions: clinical trials; cited from earlier work.
Series [6] relates to circulating platelets. Further details: method as in PMID 26589495, PMID 21094089, PMID 17205078. Conditions: preclinical studies; cited from earlier work.
For series [7] the following is noted: rats; cited from earlier work.

Where two headings read alike, the source gives them in different places.

On to `CC1(C)CCC(CN2CCN(c3ccc(C(=O)NS(=O)(=O)c4ccc(NCC5CCOCC5)c([N+](=O)[O-])c4)c(Oc4cnc5[nH]ccc5c4)c3)CC2)=C(c2ccc(Cl)cc2)C1` [ABT199], for which, in series [1], the “solubility in organic solvents” value was “showed solubility in organic solvents such as DMSO and Dimethylformamide”; the “solubility in absolute ethanol” value is listed as “soluble in absolute ethanol”; the “solubility in aqueous buffers” value is listed as “minimal”. Moreover, the half life in series [2] is 12 h. The half life in series [3] is listed as 2.2 h. Besides, the “oral bioavailability (in words)” value in series [4] is “orally bioavailable”. In addition, the “toxic effect on platelets” value in series [5] is reported as “no toxic effect on platelets”.
For `CN(C)CC[C@H](CSc1ccccc1)Nc1ccc(S(=O)(=O)NC(=O)c2ccc(N3CCN(Cc4ccccc4-c4ccc(Cl)cc4)CC3)cc2)cc1[N+](=O)[O-]` [ABT737], in series [1], the “solubility in organic solvents” value was “showed solubility in organic solvents such as DMSO and Dimethylformamide”; the “solubility in aqueous buffers” value is “minimal”. In addition, in series [4], the “oral bioavailability (in words)” value is reported as “not orally bioavailable” and the plasma clearance result is “low plasma clearance value”. For the same molecule, the “number of circulating platelets” value in series [6] was “rapid and concentration-dependent decrease in the number of circulating platelets”.
Consider `CC1(C)CCC(c2ccc(Cl)cc2)=C(CN2CCN(c3ccc(C(=O)NS(=O)(=O)c4ccc(N[C@H](CCN5CCOCC5)CSc5ccccc5)c(S(=O)(=O)C(F)(F)F)c4)cc3)CC2)C1` [ABT263], for which, in series [1], the “solubility in organic solvents” value is “showed solubility in organic solvents such as DMSO and Dimethylformamide”; the “solubility in absolute ethanol” value is listed as “soluble in absolute ethanol”; the “solubility in aqueous buffers” value is “minimal”. Moreover, the bioavailability in series [7] is ~ 20%. For the same molecule, in series [4], the “oral bioavailability (in words)” value is “orally bioavailable” and the plasma clearance result is “low plasma clearance value”. The “number of circulating platelets” value in series [6] was “rapid and concentration-dependent decrease in the number of circulating platelets”.
